From PubChem BioAssay (NCI)
Where “and” joins values, the source holds several entries; their conditions need not be identical. Equal values may be shown once.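 Test compounds were applied to cells in 96-well plates for 48 hours at 5 doses. GI50: concentration for 50% inhibition of growth. TGI is the concentration that stops growth completely.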

Key:
Assay in all cases: growth of human tumour cells (NCI), 48 h
[1] = tested on: HCC-2998 colon
[2] = tested on: IGROV1 ovarian
[3] = tested on: KM20L2 colon
[4] = tested on: M19-MEL melanoma
[5] = tested on: OVCAR-3 ovarian
[6] = tested on: RPMI-8226 leukemia
[7] = tested on: SK-MEL-28 melanoma
[8] = tested on: SNB-75 CNS
[9] = tested on: SW-620 colon
[10] = tested on: UACC-257 melanoma
[11] = tested on: UO-31 renal

With `O/N=C1\C(=C\c2ccc3c(c2)OCCO3)CCCC1C(NO)c1ccc2c(c1)OCCO2` (stereo not drawn) the TGI [1] was 65.3 µM, the TGI [2] was over 100 µM and the TGI [3] was 35.6 µM. The TGI [4] was 52.5 µM, the TGI [5] was 39.6 µM and the TGI [6] was over 100 µM. It also gave a TGI [7] of 32.5 µM, a TGI [8] of 72.6 µM and a TGI [9] of over 100 µM. The TGI [10] was 49.2 µM and the TGI [11] was 68.7 µM.

For `COC(=O)Nc1nc2ccc(C(=O)c3cccs3)cc2[nH]1`, the GI50 [1] was 0.0574 µM and 0.197 µM, the TGI [1] was 11.5 µM and > 100 µM and the GI50 [2] was 0.594 µM. For the same compound, the TGI [2] was 36.5 µM and > 100 µM, the TGI [3] was 0.0377 µM and the TGI [4] was over 100 µM. For the same compound, the GI50 [5] was 0.0192 µM and 0.0664 µM, the GI50 [6] was 0.407 µM and the GI50 [7] was 0.376 µM. The TGI [7] was 61.8 µM and > 100 µM, the GI50 [8] was < 0.0192 µM and 0.171 µM and the TGI [8] was over 100 µM. For the same compound, the GI50 [9] was 0.0672 µM, the TGI [9] was over 100 µM and the GI50 [10] was over 100 µM. The TGI [10] was over 100 µM, the GI50 [11] was 3.23 µM and the TGI [11] was 38.2 µM and > 100 µM.

With `CC1=C2C3OC(=O)C(C)C3C(O)C[C@@]2(C)C(=O)CC1` (stereo partly drawn) the TGI [1] was over 100 µM, the TGI [2] was over 100 µM and the TGI [3] was over 100 µM. The TGI [4] was over 100 µM, the TGI [5] was over 100 µM and the TGI [6] was over 100 µM. It also gave a TGI [7] of over 100 µM, a TGI [8] of over 100 µM and a TGI [9] of over 100 µM. For the same compound, the TGI [10] was over 100 µM and the TGI [11] was over 100 µM.

`CN1C/C(=C\c2ccc(C(=O)O)cc2)C(=O)/C(=C/c2ccc(C(=O)O)cc2)C1` showed a TGI [1] of over 100 µM, a TGI [2] of over 100 µM and a TGI [3] of over 100 µM. It also gave a TGI [4] of over 100 µM, a TGI [5] of over 100 µM and a TGI [6] of over 100 µM. It also gave a TGI [7] of over 100 µM, a TGI [8] of over 100 µM and a TGI [9] of over 100 µM. The TGI [10] was over 100 µM and the TGI [11] was over 100 µM.

In the case of `CCOC(=O)C(=O)Nc1nc2ccc(C)cc2s1`, the TGI [1] is reported as over 100 µM, the TGI [2] is reported as over 100 µM and the TGI [3] is reported as over 100 µM. It also gave a TGI [4] of over 100 µM, a TGI [5] of over 100 µM and a TGI [6] of over 100 µM. It also gave a TGI [7] of over 100 µM, a TGI [8] of over 100 µM and a TGI [9] of over 100 µM. The TGI [10] was over 100 µM and the TGI [11] was over 100 µM.

With `O=C1C(=Cc2ccc(F)cc2)C(=O)c2ccccc21` the TGI [1] was over 100 µM, the TGI [2] was over 100 µM and the TGI [3] was over 100 µM. The TGI [4] was over 100 µM, the TGI [5] was over 100 µM and the TGI [6] was over 100 µM. It also gave a TGI [7] of over 100 µM, a TGI [8] of 95.4 µM and a TGI [9] of over 100 µM. The TGI [10] was over 100 µM and the TGI [11] was over 100 µM.

`NC1=Nc2ccccc2Sc2ccccc21` was tested, and the TGI [1] was over 100 µM, the TGI [2] was over 100 µM and the TGI [3] was over 100 µM. The TGI [4] was over 100 µM, the TGI [5] was over 100 µM and the TGI [6] was over 100 µM. It also gave a TGI [7] of over 100 µM, a TGI [8] of 53.2 µM and a TGI [9] of over 100 µM. The TGI [10] was over 100 µM and the TGI [11] was over 100 µM.

Work on `N#C/C(=C1\OC(N)=C(c2ccc(Cl)cc2)C1=O)c1ccc(Cl)cc1` yielded a TGI [1] of 30.9 µM, a TGI [2] of 38.3 µM and a TGI [3] of 33 µM. It also gave a TGI [4] of 31.4 µM, a TGI [5] of 28 µM and a TGI [6] of 50 µM. The TGI [7] was 67.7 µM, the TGI [8] was 32.4 µM and the TGI [9] was 25.9 µM. The TGI [10] was 29 µM and the TGI [11] was 29.8 µM.

`COC(=O)C(C)Oc1ccc(O)cc1` (stereo not drawn) was tested, and the TGI [1] was over 100 µM, the TGI [2] was over 100 µM and the TGI [3] was over 100 µM. The TGI [4] was over 100 µM, the TGI [5] was over 100 µM and the TGI [6] was over 100 µM. For the same compound, the TGI [7] was 62 µM, the TGI [8] was over 100 µM and the TGI [9] was over 100 µM. The TGI [10] was over 100 µM and the TGI [11] was over 100 µM.

Compound `CC/C(C)=C1\CCC(CN(C)C)C1=O` (stereo not drawn) has a TGI [1] of 39.9 µM, a TGI [2] of 36.8 µM and a TGI [3] of 47.5 µM. It also gave a TGI [4] of 32.6 µM, a TGI [5] of 33.2 µM and a TGI [6] of 17.1 µM. It also gave a TGI [7] of 38.6 µM, a TGI [8] of 30.1 µM and a TGI [9] of 53.4 µM. For the same compound, the TGI [10] was 31.4 µM and the TGI [11] was 35.4 µM.

`O=C(CCc1cc(-c2ccc(F)cc2)n[nH]1)N(Cc1ccccc1)Cc1ccccc1` gave a TGI [1] of over 100 µM, a TGI [2] of over 100 µM and a TGI [3] of over 100 µM. For the same compound, the TGI [4] was over 100 µM, the TGI [5] was over 100 µM and the TGI [6] was over 100 µM. It also gave a TGI [7] of over 100 µM, a TGI [8] of over 100 µM and a TGI [9] of over 100 µM. It also gave a TGI [10] of over 100 µM and a TGI [11] of over 100 µM.
